Measurements: patent US8415376B2, “Inhibitors of PI3 kinase” (Amgen Inc., priority 2008, dated 2013)

How the values were obtained:
PI3Kα = target: T1, PI3Kα (Homo sapiens, UniProt P42336); assay: In vitro PI3 kinase enzyme assay (PI3K ATP loss), alpha; type: biochemical; settings: average if run more than once; read-out: ATP Loss (PBKα) IC50 μM (Avg)
T1 construct: Full length p110 subunits of PI3K α, β and δ, N-terminally labeled with polyHis tag; polyHis (N); made in house; host or cells: Sf9 insect cells (baculovirus)
T1 sequence (P42336 whole entry): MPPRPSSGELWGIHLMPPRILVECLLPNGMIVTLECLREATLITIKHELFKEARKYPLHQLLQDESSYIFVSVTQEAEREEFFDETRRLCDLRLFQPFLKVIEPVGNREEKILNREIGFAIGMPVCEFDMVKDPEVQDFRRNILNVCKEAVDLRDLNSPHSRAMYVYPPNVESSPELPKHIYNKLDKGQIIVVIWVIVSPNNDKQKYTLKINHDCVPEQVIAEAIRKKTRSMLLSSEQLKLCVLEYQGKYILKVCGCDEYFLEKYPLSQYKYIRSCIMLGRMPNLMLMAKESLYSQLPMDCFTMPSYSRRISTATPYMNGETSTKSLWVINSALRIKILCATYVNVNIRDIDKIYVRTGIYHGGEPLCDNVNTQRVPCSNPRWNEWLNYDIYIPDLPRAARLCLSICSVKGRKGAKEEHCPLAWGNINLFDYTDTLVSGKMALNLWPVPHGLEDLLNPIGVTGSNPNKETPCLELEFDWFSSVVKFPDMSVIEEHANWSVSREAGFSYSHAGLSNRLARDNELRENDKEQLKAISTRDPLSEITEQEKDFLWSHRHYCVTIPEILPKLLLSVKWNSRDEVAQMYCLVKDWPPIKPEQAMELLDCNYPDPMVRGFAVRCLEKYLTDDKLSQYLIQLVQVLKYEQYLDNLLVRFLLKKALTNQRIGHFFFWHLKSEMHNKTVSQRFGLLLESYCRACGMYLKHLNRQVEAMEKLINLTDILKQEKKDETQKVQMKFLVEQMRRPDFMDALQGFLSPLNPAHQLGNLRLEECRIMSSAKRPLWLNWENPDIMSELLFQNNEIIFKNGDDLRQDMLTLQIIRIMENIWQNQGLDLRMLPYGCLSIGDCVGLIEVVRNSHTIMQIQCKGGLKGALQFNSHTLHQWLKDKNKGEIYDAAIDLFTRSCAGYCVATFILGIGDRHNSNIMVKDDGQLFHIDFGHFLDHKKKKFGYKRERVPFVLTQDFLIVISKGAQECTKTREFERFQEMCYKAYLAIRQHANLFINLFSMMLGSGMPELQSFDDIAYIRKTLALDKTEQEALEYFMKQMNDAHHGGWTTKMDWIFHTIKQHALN
T1 sequence (P27986 whole entry partner): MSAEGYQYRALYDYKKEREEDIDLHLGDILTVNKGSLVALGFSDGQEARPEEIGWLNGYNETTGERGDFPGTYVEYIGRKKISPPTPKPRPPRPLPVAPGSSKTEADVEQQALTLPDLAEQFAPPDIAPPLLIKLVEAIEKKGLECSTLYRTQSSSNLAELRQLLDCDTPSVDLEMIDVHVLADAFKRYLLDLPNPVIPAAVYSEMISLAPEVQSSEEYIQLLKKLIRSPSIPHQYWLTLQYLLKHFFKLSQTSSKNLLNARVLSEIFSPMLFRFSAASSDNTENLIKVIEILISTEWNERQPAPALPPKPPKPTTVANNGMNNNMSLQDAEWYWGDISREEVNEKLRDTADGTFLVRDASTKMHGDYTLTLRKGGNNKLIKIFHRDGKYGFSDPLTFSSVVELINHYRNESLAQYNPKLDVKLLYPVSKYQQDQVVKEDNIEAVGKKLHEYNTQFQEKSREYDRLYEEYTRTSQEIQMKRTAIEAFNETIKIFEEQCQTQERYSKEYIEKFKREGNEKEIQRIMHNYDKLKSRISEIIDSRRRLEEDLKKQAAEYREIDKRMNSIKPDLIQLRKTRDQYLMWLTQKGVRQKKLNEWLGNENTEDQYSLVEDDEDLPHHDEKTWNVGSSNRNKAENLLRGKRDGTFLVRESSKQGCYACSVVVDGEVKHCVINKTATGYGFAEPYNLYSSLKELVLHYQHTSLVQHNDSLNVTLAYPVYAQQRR
Protocol: (§1) Full length p110 subunits of PI3K α, β and δ, N-terminally labeled with polyHis tag, can be co-expressed with p85 with Baculo virus expression vectors in sf9 insect cells. P110/p85 heterodimers can be purified by sequential Ni-NTA, Q-HP, Superdex-100 chromatography. Purified α, β and δ isozymes can be stored at −20° C. in 20 mM Tris, pH 8, 0.2M NaCl, 50% glycerol, 5 mM DTT, 2 mM Na cholate. […] The γ isozyme can be purified by sequential Ni-NTA, Superdex-200, Q-HP chromatography. The γ isozyme can be stored frozen at −80° C. in NaH2PO4, pH 8, 0.2M NaCl, 1% ethylene glycol, 2 mM β-mercaptoethanol.
(§2) In Vitro PI3 Kinase Enzyme Assays (PI3K Atploss)
(§3) PI3K enzyme assays (alpha, beta, delta and gamma) can be performed in 25 μL with the above final concentrations of components in white polyproplyene plates. Phosphatidyl inositol phosphoacceptor, PtdIns(4,5)P2 (eg. P4508) can be obtained from Echelon Biosciences, Salt Lake City, Utah. […] Test compounds can be dissolved in DMSO and diluted with three-fold serial dilutions. The compound in DMSO (1 μL) may be added per test well, and the inhibition relative to reactions containing no compound, with and without enzyme can be determined After assay incubation at RT, the reaction can be stopped and residual ATP can be determined by addition of an equal volume of a commercial ATP bioluminescence kit (Perkin Elmer EasyLite, Perkin Elmer, Waltham, Mass.) according to the manufacturer's instructions, and detected using an Analyst GT luminometer.

PI3Kβ = target: T2, PI3Kβ (Homo sapiens, UniProt P42338); assay: In vitro PI3 kinase enzyme assay (PI3K ATP loss), beta; type: biochemical; settings: average if run more than once
T2 construct: Full length p110 subunits of PI3K α, β and δ, N-terminally labeled with polyHis tag; polyHis (N); made in house; host or cells: Sf9 insect cells (baculovirus)
T2 sequence (P42338 whole entry): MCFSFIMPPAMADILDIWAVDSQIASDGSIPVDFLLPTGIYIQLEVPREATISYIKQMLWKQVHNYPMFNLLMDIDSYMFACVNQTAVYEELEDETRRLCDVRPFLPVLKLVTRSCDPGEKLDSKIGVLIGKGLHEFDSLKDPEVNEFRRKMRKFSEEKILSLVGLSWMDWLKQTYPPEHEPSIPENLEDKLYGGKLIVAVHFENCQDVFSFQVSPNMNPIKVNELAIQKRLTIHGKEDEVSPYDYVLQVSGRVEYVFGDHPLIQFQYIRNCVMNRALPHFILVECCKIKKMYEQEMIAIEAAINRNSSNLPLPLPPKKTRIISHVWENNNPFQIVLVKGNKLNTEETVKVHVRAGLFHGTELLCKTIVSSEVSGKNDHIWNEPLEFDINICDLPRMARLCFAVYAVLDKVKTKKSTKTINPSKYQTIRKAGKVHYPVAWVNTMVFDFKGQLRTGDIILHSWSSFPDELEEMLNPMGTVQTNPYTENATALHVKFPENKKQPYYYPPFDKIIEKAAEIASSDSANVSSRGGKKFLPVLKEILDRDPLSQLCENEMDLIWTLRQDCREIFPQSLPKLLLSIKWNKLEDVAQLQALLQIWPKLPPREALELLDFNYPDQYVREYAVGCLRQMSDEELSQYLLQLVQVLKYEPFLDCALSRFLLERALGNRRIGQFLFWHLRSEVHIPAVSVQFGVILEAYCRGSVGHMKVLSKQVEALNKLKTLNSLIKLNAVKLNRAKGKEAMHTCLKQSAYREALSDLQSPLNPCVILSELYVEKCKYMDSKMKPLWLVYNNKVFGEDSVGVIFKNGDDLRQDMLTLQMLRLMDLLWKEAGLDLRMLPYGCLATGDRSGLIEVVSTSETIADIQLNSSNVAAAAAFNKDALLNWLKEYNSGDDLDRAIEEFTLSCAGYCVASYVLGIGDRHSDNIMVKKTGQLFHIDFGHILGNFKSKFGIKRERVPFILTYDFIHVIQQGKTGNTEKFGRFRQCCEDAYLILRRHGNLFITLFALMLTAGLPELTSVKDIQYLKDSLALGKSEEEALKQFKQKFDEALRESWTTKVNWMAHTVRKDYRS
T2 sequence (P27986 whole entry partner): as the sequence (P27986 whole entry partner) above
Protocol: as §1, §2, §3

[1] = tested on: phosphorylation of Akt at Ser473; assay: Cell-based phospho-Akt Ser473 assay (HCT116 cell); settings: HCT 116 human colon carcinoma cells, IGF-1 stimulated; average
Excerpt: Cell-Based Phospho-Akt Ser473 Assay (HCT116 Cell)
This assay determines the ability of a compound to inhibit the phosphorylation of […] in Akt using a MSD based sandwich immunoassay (Meso Scale Detection, Meso Scale Discovery (MSD), Gaithersburg, Md.). HCT 116 human colon carcinoma cell lines can be grown in McCoy's 5A growth medium (GIBCO, Carlsbad, Calif.) containing 10% FBS (GIBCO, Carlsbad, Calif.) and X1 Penicillin-streptomycin-glutamine (GIBCO, Carlsbad, Calif.). Prior to the assay, cells can be detached from the culture flask with trypsin, and re-suspended in complete media to give a final concentration of 1.6×10^5 cells per mL. Aliquots (100 μl) of the HCT116 cell suspension can be seeded into each well of a 96 well tissue culture plate to give a final density of 16,000 cells per well. Cells can then be incubated overnight at 37° C.
The following day the cells can be treated with serially diluted test compounds and incubated for 2 hours at 37° C. The culture media on the HCT 116 cells can be replaced with 189 μL McCoys media, supplemented with 0.1% BSA (ICN Biomedicals, Inc., Costa Mesa, Calif.). Compounds can be prepared as either 10 mM or 0.5 mM stock solutions in DMSO, and serially diluted 3 fold in a 10-point dose-response curve to give final concentrations that are 200-fold greater than the desired final test concentration. Aliquots (1 μL) of serially-diluted compounds can be transferred to 96 well tissue culture plates containing the HCT 116 cells. […] As a maximum response control, wells can contain 0.5% DMSO in place of compound. The plates can be mixed at 700 rpm for 2 min to ensure even distribution of the test compound and incubated for 2 hours at 37° C. Cells can then be stimulated with insulin-like growth factor 1 (Sigma, St Louis, Mo.) at final concentration of 100 ng/ml for 15 minutes at 37° C. The media can then be removed and the cells treated with 80 μL cell-lysis buffer (MSD) containing a cocktail of protease and phosphatase inhibitors for one hour at 4° C.
25 μL Cell lysate can then be transferred to pre-blocked MSD assay plates pre-coated with a capture antibody specific for Akt, and the plates can be incubated for 2 hours at room temperature. The cell lysates can then be removed and plates can then be washed four times with 200 μl per well of Tris wash buffer (500 mM Tris, PH 7.5, 1.5 M NaCl, 0.2% Tween-20). Subsequently cells can be incubated for 1 hour at room temperature with a 25 μL solution containing the detection antibody, anti-phospho Akt (Ser 473) labeled with an electrochemiluminescent compound (Meso Scale Discovery SULPHO-TAG™ label, MSD, Gaithersburg, Md.). The detection antibody can be removed and plates can then be washed four times with 200 μL per well of Tris wash buffer. An aliquot of 150 μL of diluted MSD read buffer can then be applied to each well, and the electrochemiluminescent signal can be measured using a MSD SECTOR™ plate reader (Meso Scale Discovery, Gaithersburg, Md.). This instrument measures the intensity of emitted light to determine a quantitative measure of phosphorylated Akt in each well. The dose-response data obtained with each compound can be analyzed and the IC50 inhibition of Akt phosphorylation at Ser473 can be calculated.
Activity data for the compounds tested in the PI3K cell based Akt assay is provided in Table 1 under the column heading HCT116 Cell.

IC50 (PI3Kα) [µM]	IC50 (PI3Kβ) [µM]	IC50 [1] [µM]	Structure (SMILES)
0.0258	0.644	0.311	Oc1cc(-c2ccc3nccc(N4CCOCC4)c3c2)cnc1Cl [Example 19, 2-chloro-5-(4-(4-morpholinyl)-6-quinolinyl)-3-pyridinol]
0.136	0.18	0.108	COc1ccc(S(=O)(=O)Nc2cc(-c3ccc4nc(N)ccc4c3)cnc2Cl)cc1 [Example 46, N-(5-(2-amino-6-quinolinyl)-2-chloro-3-pyridinyl)-4-methoxybenzenesulfonamide]
0.0114	0.0552	0.654	O=S(=O)(Nc1cc(-c2ccc3ncc(O)cc3c2)cnc1Cl)c1ccc(F)cc1 [Example 22, N-(2-chloro-5-(3-hydroxy-6-quinolinyl)-3-pyridinyl)-4-fluorobenzenesulfonamide]
0.0127	0.0147	0.222	COc1ccnc2ccc(-c3cnc(Cl)c(NS(=O)(=O)c4ccc(F)cc4)c3)cc12 [Example 8, N-(2-chloro-5-(4-methoxy-6-quinolinyl)-3-pyridinyl)-4-fluorobenzenesulfonamide]
0.0034	0.0824	0.0635	O=S(=O)(Nc1cc(-c2ccc3ncc(N4CCC(F)(F)CC4)nc3c2)cnc1Cl)c1ccc(F)cc1 [Example 58, N-(2-chloro-5-(3-(4,4-difluoro-1-piperidinyl)-6-quinoxalinyl)-3-pyridinyl)-4-fluorobenzenesulfonamide]
0.0027	0.0842	0.141	O=S(=O)(Nc1cc(-c2ccc3ncc(N4CCCCC4)nc3c2)cnc1Cl)c1ccc(F)cc1 [Example 54, N-(2-chloro-5-(3-(1-piperidinyl)-6-quinoxalinyl)-3-pyridinyl)-4-fluorobenzenesulfonamide]
0.0049	0.01	0.0168	O=S(=O)(Nc1cc(-c2ccc3ncc(N4CCNCC4)nc3c2)cnc1Cl)c1ccc(F)cc1 [Example 72, N-(2-chloro-5-(3-(1-piperazinyl)-6-quinoxalinyl)-3-pyridinyl)-4-fluorobenzenesulfonamide]
0.0162	0.0253	0.186	COc1cnc2ccc(-c3cnc(Cl)c(NS(=O)(=O)c4ccc(F)cc4)c3)cc2c1 [Example 4, N-(2-chloro-5-(3-methoxy-6-quinolinyl)-3-pyridinyl)-4-fluorobenzenesulfonamide]
0.003	0.0366	0.107	COc1ccc(S(=O)(=O)Nc2cc(-c3ccc4nccc(N5CCC(OC)CC5)c4c3)cnc2Cl)cc1 [Example 50, N-(2-chloro-5-(4-(4-methoxy-1-piperidinyl)-6-quinolinyl)-3-pyridinyl)-4-methoxybenzenesulfonamide]
0.0065	0.0359	0.0376	O=S(=O)(Nc1cc(-c2ccc3nccc(N4CCOCC4)c3c2)cnc1Cl)c1c(Cl)cccc1Cl [Example 34, 2,6-dichloro-N-(2-chloro-5-(4-(4-morpholinyl)-6-quinolinyl)-3-pyridinyl)benzenesulfonamide]
0.0041	0.0219	0.0063	O=S(=O)(Nc1cc(-c2ccc3nccc(N4CCOCC4)c3c2)cnc1Cl)c1ccccc1Cl [Example 33, 2-chloro-N-(2-chloro-5-(4-(4-morpholinyl)-6-quinolinyl)-3-pyridinyl)benzenesulfonamide]
0.0458	0.156	0.0501	CS(=O)(=O)Nc1cc(-c2ccc3nccc(N4CCOCC4)c3c2)cnc1Cl [Example 11, N-(2-chloro-5-(4-(4-morpholinyl)-6-quinolinyl)-3-pyridinyl)methanesulfonamide]
0.0142	0.052	2.06	CS(=O)(=O)Nc1cc(-c2ccc3nccc(Cl)c3c2)cnc1Cl [Example 9, N-(2-chloro-5-(4-chloro-6-quinolinyl)-3-pyridinyl)methanesulfonamide]
